Like-named read-outs stand apart in the source and are kept apart here.
Tests used:
[1] = versus phenylbutazone; cited from earlier work
[2] = versus phenylbutazone; cited from earlier work; remark: listed apart in the source
[3] = test system: carrageenin edema of the hind paw of rats; experiment: Acute antiphlogistic action: carrageenin edema of the hind paw of rats after single oral administration; details: for ED50: Rattus norvegicus, po, read-out: ED50 (dose which causes a maximum edema inhibition of 50%); for Therapeutic quotient LD50/ED50: carrageenin edema, LD50 7 days oral; for Therapeutic quotient LD50/ED50 / Maximum inhibition of carrageenin edema within 7 hours after oral administration: rats
Method: (§1) Biol. Med., 111 (1962) 544]}, on chronic inflammatory processes {Cotton pellet test on rats [Winter et al.: J. Pharmacol. exp. Therap., 141 (1963) 369]} and on adjuvant arthritis [based on the method of Perrine et al., Brit. J. Pharmacol., 21 (1963) 127] is determined.
The influence of the compounds to be tested on carrageenin edema of the hind paw of rats was determined as follows:
The rats are kept at 24° C.
The paw volume of each rat is determined (2 to 3 individual measurements in each case) before edema provocation and at hourly intervals for 7 hours after edema provacation. The average percentage paw swelling of each treated group determined at the specified times after the carrageenin injection is related to that of the untreated control group (=100%).
The maximum percentage edema inhibition serves as a measure of the antiphlogistic action.
The paw volume is determined plethysmometrically. Measuring principle: the volume of liquid displaced through the paw of the rat is recorded digitally via an electromechanical pressure transducer (Statham P 23 V, 0-200 mm Hg).
The doses indicated for the compounds tested were administered in a volume of liquid of 20 ml/kg.

[4] = Chronic antiphlogistic action: cotton pellet test (formation of granulation tissue) in rats; details: rat, in vivo, po
Method: as §1
(§2) Experimental procedure for investigating the influence of the compounds to be tested on the formation of granulation tissue after implantation of cotton in rats (so-called cotton pellet method):
(§3) 1 cotton pellet (manufacturer: Messrs. Hartmann/Heidenheim; cotton pellets size 2, No. 4865/2) which weighs 13.0±0.5 mg and has been impregnated beforehand with 0.1 ml of a solution of 0.5 mg of penicillin G and 0.8 mg of streptomycin sulfate/1 ml of distilled water is in each case implanted subcutaneously into the shoulder-blade region, on both sides, of male Sprague-Dawley rats (groups of 8 animals each; weight of each animal: 150 to 170 g) under diethyl ether anaesthesia and under sterile conditions. The cut skin is closed by means of clamps.
(§4) The compounds to be tested (in the form of the sodium salt in aqueous solution) or the corresponding amount (5 ml/kg/day) of tapwater (=control group) are administered orally each day on seven successive days. On the eighth day, the animals are killed and the cotton granules are exposed carefully, that is to say preserving the fibrous tissue capsule, dried (15 hours at 120°) and weighed. By substracting the weight of the cotton pellets, the amount of newly formed granulation tissue is obtained.
(§5) The percentage reduction in the average granuloma dry weight of a treated group compared with the control group (=100%) serves as a measure of the antiproliferative action of a compound.

[5] = test system: formation of granulation tissue after subcutaneous implantation of cotton; experiment: as above; details: rats; for Therapeutic quotient LD50/ED20: cotton pellet test, LD50 7 days oral; for Inhibition of the formation of granulation tissue after treatment for 7 days: sodium salt
Method: as §1, §2, §3, §4, §5

[6] = test system: adjuvant arthritis in rats; experiment: Antiarthritic action: adjuvant arthritis in rats (Mycobacterium butyricum); details: for ED25: Rattus norvegicus, po, 120 h, read-out: ED25 (inhibition of adjuvant arthritis of 25%); for therapeutic quotient LD50/ED25: adjuvant arthritis, LD50 7 days oral, rats
Method: as §1
The influence of the compounds to be tested on polyarthritis in rats caused by Mycobacterium butyricum (so-called "adjuvant arthritis") was determined using the experimental arrangement hereafter described: based on the method described by NEWBOULD and PERRINE et al. [NEWBOULD, B. B.; Brit. J. Pharmacol. 21, 127 (1963); and PERRINE, J. W. and TAKESUE, E. I.; Arch. int. Pharmacodyn., 174, 192 to 198 (1968)], so-called adjuvant arthritis, which manifests itself chiefly in a severe swelling of the tail (primary lesion) and of the paws (secondary lesion), is caused in rats by intradermal injection of a Mycobact. butyricum suspension in liquid paraffin into the base of the tail. Antiphlogistic agents inhibit this swelling reaction.

[7] = test system: pain reaction provoked in rats by bending an inflamed ankle (AgNO3 arthritis); experiment: animal or person; format: in vivo; details: for Therapeutic quotient LD50/ED50 / therapeutic quotient LD50/ED25: AgNO3 arthritis pain, LD50 7 days oral; for Therapeutic quotient LD50/ED50 / therapeutic quotient LD50/ED25 / ED50 / Inhibition of the pain reaction: rats; for ED25 / ED50: Rattus norvegicus, po; for ED25: read-out: ED25 (dose which completely suppresses the pain reaction in 25% of the animals); for ED50: perorally, at the time of maximum action, read-out: ED50 (dose which completely suppresses the pain reaction in 50% of the animals)
Method: Based on the method of HOFFMEISTER et al. [Arzneim. Forsch., 24, (1974) 600], 0.2 ml of a 1% strength silver nitrate solution is injected into the ankle joint (inside) of the right hind paw of female Sprague-Dawley rats (each animal weighing about 160 to 180 g) under ether anaesthesia. The animals are kept at 24° C. and are fed Altromin®R and water ad libitum. After the AgNO3 injection, almost all the animals (90 to 95%) can be made to cry out by moderate bending of the ankle joint. All the animals reacting positively are collected into groups of 10 animals. The compounds to be tested are administered orally in a volume of liquid of 10 ml/kg immediately after administration of the AgNO3; the untreated control animals receive the corresponding amount of tapwater.
Over a period of 4 hours after administration of the substance, the number of animals reacting is determined at half hourly intervals.
The maximum percentage of the protected animals over a period of 4 hours after administration of the substance [relative to the number of animals in the control group reacting (=100%)] serves as a measure of the analgesic action.

[8] = test system: yeast-induced fever in rats; experiment: Antipyretic action: yeast-induced fever in rats; format: in vivo, rats (female Sprague-Dawley); details: for ED (1.5 degC): Rattus norvegicus, po, read-out: ED1.5 (dose which causes a maximum reduction in yeast-induced fever of 1.5° C.)
Method: The antipyretic action is determined by the influence of the compounds to be tested on yeast-induced fever in rats.
Hyperthermia is produced in female Sprague-Dawley rats (in groups of 5 animals; weight of each animal: 160 to 180 g) by subcutaneous injection (neck) of 10 ml/kg of a 20 percent strength aqueous brewer's yeast suspension (brewer's yeast "Heliosan"/Hefereformwerk Radolfzell). 24 hours after the yeast injection, the compounds to be tested are administered orally to the animals in a volume of liquid of 5 ml/kg, and a control group receives the corresponding amount of tapwater. The feed (Altromin®R, water ad libitum) was withdrawn from the rats 18 hours beforehand. The rats are kept at about 23° C.
The body temperature is recorded 1 hour before administration of the substance and at hourly intervals after administration of the substance.
[…] The body temperature is measured with a temperature probe (Tastomed H, Braun electronic).

in vivo = details: rat, po

Cc1cccc(Nc2cscc2C(=O)O)c1C [2,3-dimethylphenyl compound]
antiphlogistic action [1]: comparable to that of phenylbutazone
antipyretic action [2]: superior

COc1ccc2c(c1)c(CC(=O)O)c(C)n2C(=O)c1ccc(Cl)cc1 [Compound 2, indomethacin, reference compound]
ED50 [3]: 4.6 mg/kg
Therapeutic quotient LD50/ED50 [3]: 1.2
Maximum inhibition of carrageenin edema within 7 hours after oral administration ([3]; single oral dose 1.0 mg/kg): 29%
Maximum inhibition of carrageenin edema within 7 hours after oral administration ([3]; single oral dose 3.0 mg/kg): 47%
Maximum inhibition of carrageenin edema within 7 hours after oral administration ([3]; single oral dose 10.0 mg/kg): 56%
mortality at 168 h ([4]; 5 mg/kg/day): 25%
Therapeutic quotient LD50/ED20 [5]: ~ 1.8
Inhibition of the formation of granulation tissue after treatment for 7 days ([5]; 7 x 0.1 mg/kg/day orally): 7%
Inhibition of the formation of granulation tissue after treatment for 7 days ([5]; 7 x 0.3 mg/kg/day orally): 11%
Inhibition of the formation of granulation tissue after treatment for 7 days ([5]; 7 x 1.0 mg/kg/day orally): 16%
Inhibition of the formation of granulation tissue after treatment for 7 days ([5]; 7 x 3.0 mg/kg/day orally): 16%
Inhibition of the formation of granulation tissue after treatment for 7 days ([5]; 7 x 4.0 mg/kg/day orally): 17%
ED25 [6]: 0.18 mg/kg/day
therapeutic quotient LD50/ED25 [6]: 30.6
Therapeutic quotient LD50/ED50 [7]: 0.92
therapeutic quotient LD50/ED25 [7]: 4.58
ED25 [7]: 1.2 mg/kg
ED50 [7]: 6 mg/kg
Inhibition of the pain reaction ([7]; single oral dose 1 mg/kg): 23%
Inhibition of the pain reaction ([7]; single oral dose 3 mg/kg): 36%
Inhibition of the pain reaction ([7]; single oral dose 6 mg/kg): 50%
ED (1.5 degC) [8]: 5 mg/kg
Maximum reduction in yeast-induced fever over a period of 7 hours ([8]; rats, single oral dose 1 mg/kg): 0.2 °C
Maximum reduction in yeast-induced fever over a period of 7 hours ([8]; rats, single oral dose 3 mg/kg): 0.7 °C
Maximum reduction in yeast-induced fever over a period of 7 hours ([8]; rats, single oral dose 6 mg/kg): 1.8 °C
LD50 at 168 h (in vivo): 5.5 mg/kg

O=C(O)Cc1cscc1Nc1c(Cl)cccc1Cl [Compound 3, 4-(2,6-dichloroanilino)-3-thiophenacetic acid]
ED50 [3]: 1.6 mg/kg
Therapeutic quotient LD50/ED50 [3]: 6.9
Maximum inhibition of carrageenin edema within 7 hours after oral administration ([3]; single oral dose 0.3 mg/kg): 29%
Maximum inhibition of carrageenin edema within 7 hours after oral administration ([3]; single oral dose 1.0 mg/kg): 46%
Maximum inhibition of carrageenin edema within 7 hours after oral administration ([3]; single oral dose 3.0 mg/kg): 56%
mortality at 168 h ([4]; 6 mg/kg/day): 0%
Therapeutic quotient LD50/ED20 [5]: ~ 11
Inhibition of the formation of granulation tissue after treatment for 7 days ([5]; 7 x 0.1 mg/kg/day orally): 6%
Inhibition of the formation of granulation tissue after treatment for 7 days ([5]; 7 x 0.3 mg/kg/day orally): 15%
Inhibition of the formation of granulation tissue after treatment for 7 days ([5]; 7 x 1.0 mg/kg/day orally): 14%
Inhibition of the formation of granulation tissue after treatment for 7 days ([5]; 7 x 3.0 mg/kg/day orally): 22%
Inhibition of the formation of granulation tissue after treatment for 7 days ([5]; 7 x 5.0 mg/kg/day orally): 22%
Inhibition of the formation of granulation tissue after treatment for 7 days ([5]; 7 x 6.0 mg/kg/day orally): 36%
ED25 [6]: 0.2 mg/kg/day
therapeutic quotient LD50/ED25 [6]: 55
Therapeutic quotient LD50/ED50 [7]: 3.67
therapeutic quotient LD50/ED25 [7]: 11
ED25 [7]: 1 mg/kg
ED50 [7]: 3 mg/kg
Inhibition of the pain reaction ([7]; single oral dose 1 mg/kg): 26%
Inhibition of the pain reaction ([7]; single oral dose 3 mg/kg): 50%
Inhibition of the pain reaction ([7]; single oral dose 10 mg/kg): 62%
ED (1.5 degC) ([8]; rats, perorally, single dose): 0.4 mg/kg
Maximum reduction in yeast-induced fever over a period of 7 hours ([8]; rats, single oral dose 0.03 mg/kg): 0.4 °C
Maximum reduction in yeast-induced fever over a period of 7 hours ([8]; rats, single oral dose 0.1 mg/kg): 0.8 °C
Maximum reduction in yeast-induced fever over a period of 7 hours ([8]; rats, single oral dose 0.3 mg/kg): 1.4 °C
Maximum reduction in yeast-induced fever over a period of 7 hours ([8]; rats, single oral dose 1 mg/kg): 1.7 °C
LD50 at 168 h (in vivo): 11 mg/kg
